From patent publication US20220193189A1, “USE OF Dvl3-DEP PEPTIDE IN PREPARATION OF MEDICAMENT FOR REPAIRING SERTOLI CELL INJURY IN TESTES” (The Second Affiliated Hospital and Yuying Children's …, priority 2020, published 2022)

B1: DEP peptide: Dvl3-DEP peptide with amino acid sequence SEQ ID NO. 1, overexpressed in Sertoli cells (protein)
chain: PESGLEVRDRMWLKITIPNAFIGSDVVDWLYHNVEGFTDRREARKYASNLLKAGFIRHTVNKITFSEQCYYIFGD
modifications: amino acid sequence of Dvl3-DEP peptide
notes: 1, overexpressed in Sertoli cells

Assays:
[1] = tested on: Sertoli cells; test: IF staining of tight junction-associated protein ZO-1 in Sertoli cells in vitro; type: cell-based, SD rat; details: PFOS 20 μM for 24 h, empty plasmid transfection group, day 6, vs blank control group
From the text: A total of 10 male SD rats at the age of 20 days were sacrificed and testes were collected. The testicular envelope and free seminiferous tubules were removed, and the remaining tissue was cut to 1 mm^3 with scissors and then digested successively with trypsin, protease inhibitor, collagenase, hyaluronidase, and other enzymes. Cell masses obtained from digestion were pipetted up and down with a glass Pasteur pipette and then subjected to density gradient centrifugation, and finally the volume of precipitated cells was measured and converted into the number of cells. Finally, the cells were cultivated in an F12/DMEM cell culture medium with human transferrin (5 μg/mL), bovine insulin (10 μg/mL), bacitracin (5 μg/mL), epithelial growth factor (EGF) (2.5 ng/mL), and the like. The cells were cultivated at 5% CO2 and 35° C. to obtain primary Sertoli cells. […]
In order to observe the tight junction morphology among Sertoli cells cultivated in vitro, IF staining (green fluorescent) was conducted using an antibody for the Sertoli cell tight junction-associated protein ZO-1 (ThermoFisher, 61-7300), and the nucleus was stained with DAPI (blue fluorescence) after the above staining. After mounting, a fluorescence microscope was used to observe and take pictures.

[2] = cited from earlier work
[3] = tested on: polymerized/free Actin in Sertoli cells; test: G-Actin/F-actin polymerization test (ultracentrifugation, Western blot); type: cell-based, SD rat; details: after PFOS treatment
From the text: (§1) A total of 10 male SD rats at the age of 20 days were sacrificed and testes were collected. The testicular envelope and free seminiferous tubules were removed, and the remaining tissue was cut to 1 mm^3 with scissors and then digested successively with trypsin, protease inhibitor, collagenase, hyaluronidase, and other enzymes. Cell masses obtained from digestion were pipetted up and down with a glass Pasteur pipette and then subjected to density gradient centrifugation, and finally the volume of precipitated cells was measured and converted into the number of cells. Finally, the cells were cultivated in an F12/DMEM cell culture medium with human transferrin (5 μg/mL), bovine insulin (10 μg/mL), bacitracin (5 μg/mL), epithelial growth factor (EGF) (2.5 ng/mL), and the like. The cells were cultivated at 5% CO2 and 35° C. to obtain primary Sertoli cells.
Isolation and cultivation of cells were conducted according to the method in Example 2, and obtained cells were inoculated in a prepared 6-well plate. Cells in each group were collected immediately after the experiment ended. Related Actin and Tubulin polymerization tests were conducted on cells in the DEP peptide overexpression group and cells in the empty plasmid transfection group using G-Actin/F-actin polymerization detection kit (G-Actin/F-actin In Vivo Assay Biochem Kit, BK037, Cytoskeleton, Inc) and Microtubule/Tubulin polymerization detection kit (Microtubule/Tubulin In Vivo Assay Biochem Kit, BK038, Cytoskeleton, Inc). Related detection methods can refer to product descriptions. The main purpose of these tests is to separate polymerized cytoskeleton proteins (F-actin and Microtubule) and free monomeric cytoskeleton proteins (G-actin and Tubulin) in a cell lysate by ultracentrifugation. Then the polymerized cytoskeleton protein (a precipitate obtained from the ultracentrifugation) and the monomeric cytoskeleton protein (a supernatant obtained from the ultracentrifugation) in the cell lysate system were detected separately by Western blot. […]

[4] = tested on: polymerized/free Tubulin in Sertoli cells; test: Microtubule/Tubulin polymerization test (ultracentrifugation, Western blot); type: cell-based, SD rat; details: after PFOS treatment
From the text: as §1
Isolation and cultivation of cells were conducted according to the method in Example 2, and obtained cells were inoculated in a prepared 6-well plate. Cells in each group were collected immediately after the experiment ended. […] Then the polymerized cytoskeleton protein (a precipitate obtained from the ultracentrifugation) and the monomeric cytoskeleton protein (a supernatant obtained from the ultracentrifugation) in the cell lysate system were detected separately by Western blot. […]

[5] = pCI-neo empty plasmid transfection group

Molecule | cell-cell junction interface (ZO-1 IF staining) [1] | human metabolic half-life [2] | F-actin level (precipitate of ultracentrifugation, Western blot) [3, 5] | Microtubule level (precipitate of ultracentrifugation, Western blot) [4, 5] | F-actin level (precipitate of ultracentrifugation, Western blot) ([3]; DEP peptide overexpression group, positive control 0.1 uM phalloidin) | free G-actin content in the cell lysate supernatant (Western blot) ([3]; empty plasmid transfection group vs DEP peptide overexpression group) | Microtubule level (precipitate of ultracentrifugation, Western blot) ([4]; DEP peptide overexpression group, positive control 20 uM paclitaxel)
O=S(=O)(O)C(F)(F)C(F)(F)C(F)(F)C(F)(F)C(F)(F)C(F)(F)C(F)(F)C(F)(F)F [PFOS, Perfluorooctane sulphonate] | significantly damaged | more than 5 years | low, which was almost comparable to that in the negative control group | low, which was almost comparable to that in the negative control group | – | – | –
B1 | – | – | – | – | lower than that in the positive control group but significantly higher than that in the empty plasmid transfection group | empty plasmid transfection group was higher than that of the DEP peptide overexpression group | lower than that in the positive control group but significantly higher than that in the empty plasmid transfection group
